{
  "source": "patent US9873709B2",
  "about": "(priority 2013, dated 2018)",
  "data": [
    {"system": "JAK1-dependent STAT6 phosphorylation downstream of IL-13 stimulation in TF-1 human erythroleukemia cells", "test": "cells", "conditions": "TF-1, read-out: IL-13-pSTAT6 IC50", "units": {"IC50": "nM"}, "values": [
      {"smiles": "CCOC(=O)N1CC=C(c2cccn3nc(Nc4ccc(C(=O)N5CCNCC5C)cc4)nc23)CC1", "note": "(stereo not drawn) [Example 2-24, ethyl 4-[2-[4-(2-methylpiperazine-1-carbonyl)anilino]-[1,2,4]triazolo[1,5-a]pyridin-8-yl]-3,6-dihydro-2H-pyridine-1-carboxylate]", "IC50": 21.6},
      {"smiles": "CCOC(=O)N1CC=C(c2cccn3nc(Nc4ccc(C(=O)NC5CC6(CCNCC6)C5)cc4)nc23)CC1", "note": "[Example 2-27, ethyl 4-[2-[4-(7-azaspiro[3.5]nonan-2-ylcarbamoyl)anilino]-[1,2,4]triazolo[1,5-a]pyridin-8-yl]-3,6-dihydro-2H-pyridine-1-carboxylate]", "IC50": 257},
      {"smiles": "O=C(CCC(F)(F)F)N1CC=C(c2cccn3nc(Nc4ccc(C(=O)N5CCC6(CCNC6)C5)cc4)nc23)CC1", "note": "(stereo not drawn) [Example 2-28, 1-[4-[2-[4-(2,7-diazaspiro[4.4]nonane-2-carbonyl)anilino]-[1,2,4]triazolo[1,5-a]pyridin-8-yl]-3,6-dihydro-2H-pyridin-1-yl]-4,4,4-trifluoro-butan-1-one]", "IC50": 207},
      {"smiles": "O=C(CCC(F)(F)F)N1CC=C(c2cccn3nc(Nc4ccc(C(=O)N5CCC6(CCNCC6)CC5)cc4)nc23)CC1", "note": "[Example 2-29, 1-[4-[2-[4-(3,9-diazaspiro[5.5]undecane-3-carbonyl)anilino]-[1,2,4]triazolo[1,5-a]pyridin-8-yl]-3,6-dihydro-2H-pyridin-1-yl]-4,4,4-trifluoro-butan-1-one]", "IC50": 80.3},
      {"smiles": "O=C(NCC1CNCCO1)c1ccc(Nc2nc3c(C4=CCN(C(=O)CCC(F)(F)F)CC4)cccn3n2)cc1", "note": "(stereo not drawn) [Example 2-30, N-(morpholin-2-ylmethyl)-4-[[8-[1-(4,4,4-trifluorobutanoyl)-3,6-dihydro-2H-pyridin-4-yl]-[1,2,4]triazolo[1,5-a]pyridin-2-yl]amino]benzamide]", "IC50": 40.3},
      {"smiles": "CNCCNC(=O)c1ccc(Nc2nc3c(C4=CCN(C(=O)CCC(F)(F)F)CC4)cccn3n2)cc1", "note": "[Example 2-31, N-[2-(methylamino)ethyl]-4-[[8-[1-(4,4,4-trifluorobutanoyl)-3,6-dihydro-2H-pyridin-4-yl]-[1,2,4]triazolo[1,5-a]pyridin-2-yl]amino]benzamide]", "IC50": 181},
      {"smiles": "O=C(NCCN1CCNCC1)c1ccc(Nc2nc3c(C4=CCN(C(=O)CCC(F)(F)F)CC4)cccn3n2)cc1", "note": "[Example 2-32, N-(2-piperazin-1-ylethyl)-4-[[8-[1-(4,4,4-trifluorobutanoyl)-3,6-dihydro-2H-pyridin-4-yl]-[1,2,4]triazolo[1,5-a]pyridin-2-yl]amino]benzamide]", "IC50": 536},
      {"smiles": "O=C(CCC(F)(F)F)N1CC=C(c2cccn3nc(Nc4ccc(C(=O)N5CCNCC5CO)cc4)nc23)CC1", "note": "(stereo not drawn) [Example 2-33, 4,4,4-trifluoro-1-[4-[2-[4-[2-(hydroxymethyl)piperazine-1-carbonyl]anilino]-[1,2,4]triazolo[1,5-a]pyridin-8-yl]-3,6-dihydro-2H-pyridin-1-yl]butan-1-one]", "IC50": 23.3},
      {"smiles": "O=C(CCC(F)(F)F)N1CC=C(c2cccn3nc(Nc4ccc(C(=O)N5CCCCC56CCCNC6)cc4)nc23)CC1", "note": "(stereo not drawn) [Example 2-34, 1-[4-[2-[4-(1,8-diazaspiro[5.5]undecane-1-carbonyl)anilino]-[1,2,4]triazolo[1,5-a]pyridin-8-yl]-3,6-dihydro-2H-pyridin-1-yl]-4,4,4-trifluoro-butan-1-one]", "IC50": 352},
      {"smiles": "O=C(CCC(F)(F)F)N1CC=C(c2cccn3nc(Nc4ccc(C(=O)N5CC6(CCNC6)C5)cc4)nc23)CC1", "note": "[Example 2-35, 1-[4-[2-[4-(2,7-diazaspiro[3.4]octane-2-carbonyl)anilino]-[1,2,4]triazolo[1,5-a]pyridin-8-yl]-3,6-dihydro-2H-pyridin-1-yl]-4,4,4-trifluoro-butan-1-one]", "IC50": 95},
      {"smiles": "O=C(CCC(F)(F)F)N1CC=C(c2cccn3nc(Nc4ccc(C(=O)N5CC6CNCC(C5)O6)cc4)nc23)CC1", "note": "[Example 2-37, 4,4,4-trifluoro-1-[4-[2-[4-(9-oxa-3,7-diazabicyclo[3.3.1]nonane-3-carbonyl)anilino]-[1,2,4]triazolo[1,5-a]pyridin-8-yl]-3,6-dihydro-2H-pyridin-1-yl]butan-1-one]", "IC50": 85.4},
      {"smiles": "CCN1CCC(CN(C)C(=O)c2ccc(Nc3nc4c(C5=CCN(C(=O)CCC(F)(F)F)CC5)cccn4n3)cc2)C1", "note": "(stereo not drawn) [Example 2-39, N-[(1-ethylpyrrolidin-3-yl)methyl]-N-methyl-4-[[8-[1-(4,4,4-trifluorobutanoyl)-3,6-dihydro-2H-pyridin-4-yl]-[1,2,4]triazolo[1,5-a]pyridin-2-yl]amino]benzamide]", "IC50": 34.7},
      {"smiles": "Cc1ccnc(CNC(=O)c2ccc(Nc3nc4c(C5=CCN(C(=O)CCC(F)(F)F)CC5)cccn4n3)cc2)c1", "note": "[Example 2-41, N-[(4-methyl-2-pyridyl)methyl]-4-[[8-[1-(4,4,4-trifluorobutanoyl)-3,6-dihydro-2H-pyridin-4-yl]-[1,2,4]triazolo[1,5-a]pyridin-2-yl]amino]benzamide]", "IC50": 5.2},
      {"smiles": "Cc1ncccc1CNC(=O)c1ccc(Nc2nc3c(C4=CCN(C(=O)CCC(F)(F)F)CC4)cccn3n2)cc1", "note": "[Example 2-42, N-[(2-methyl-3-pyridyl)methyl]-4-[[8-[1-(4,4,4-trifluorobutanoyl)-3,6-dihydro-2H-pyridin-4-yl]-[1,2,4]triazolo[1,5-a]pyridin-2-yl]amino]benzamide]", "IC50": 4.7},
      {"smiles": "CC(CC(=O)N1CC=C(c2cccn3nc(Nc4ccc(C(=O)N(C)C5CCN(C)CC5)cc4)nc23)CC1)C(F)(F)F", "note": "(stereo not drawn) [Example 2-43, N-methyl-N-(1-methyl-4-piperidyl)-4-[[8-[1-(4,4,4-trifluoro-3-methyl-butanoyl)-3,6-dihydro-2H-pyridin-4-yl]-[1,2,4]triazolo[1,5-a]pyridin-2-yl]amino]benzamide]", "IC50": 27.8},
      {"smiles": "O=C(CCC(F)(F)F)N1CC=C(c2cccn3nc(Nc4ccc(C(=O)N5CCC(N6CCOCC6)C5)cc4)nc23)CC1", "note": "(stereo not drawn) [Example 2-45, 4,4,4-trifluoro-1-[4-[2-[4-(3-morpholinopyrrolidine-1-carbonyl)anilino]-[1,2,4]triazolo[1,5-a]pyridin-8-yl]-3,6-dihydro-2H-pyridin-1-yl]butan-1-one]", "IC50": 9},
      {"smiles": "O=C(CCC(F)(F)F)N1CC=C(c2cccn3nc(Nc4ccc(C(=O)N5CCC(N6CCCC6)CC5)cc4)nc23)CC1", "note": "[Example 2-46, 4,4,4-trifluoro-1-[4-[2-[4-(4-pyrrolidin-1-ylpiperidine-1-carbonyl)anilino]-[1,2,4]triazolo[1,5-a]pyridin-8-yl]-3,6-dihydro-2H-pyridin-1-yl]butan-1-one]", "IC50": 20.5},
      {"smiles": "CC1CCCCN1CCCNC(=O)c1ccc(Nc2nc3c(C4=CCN(C(=O)CCC(F)(F)F)CC4)cccn3n2)cc1", "note": "(stereo not drawn) [Example 2-47, N-[3-(2-methyl-1-piperidyl)propyl]-4-[[8-[1-(4,4,4-trifluorobutanoyl)-3,6-dihydro-2H-pyridin-4-yl]-[1,2,4]triazolo[1,5-a]pyridin-2-yl]amino]benzamide]", "IC50": 15.7},
      {"smiles": "CN1CCCC1CCNC(=O)c1ccc(Nc2nc3c(C4=CCN(C(=O)CCC(F)(F)F)CC4)cccn3n2)cc1", "note": "(stereo not drawn) [Example 2-48, N-[2-(1-methylpyrrolidin-2-yl)ethyl]-4-[[8-[1-(4,4,4-trifluorobutanoyl)-3,6-dihydro-2H-pyridin-4-yl]-[1,2,4]triazolo[1,5-a]pyridin-2-yl]amino]benzamide]", "IC50": 33.5},
      {"smiles": "Cc1ccc(C2CCCN(C(=O)c3ccc(Nc4nc5c(C6=CCN(C(=O)CCC(F)(F)F)CC6)cccn5n4)cc3)C2)nc1", "note": "(stereo not drawn) [Example 2-50, 4,4,4-tri fluoro-1-[4-[2-[4-[3-(5-methyl-2-pyridyl)piperidine-1-carbonyl]anilino]-[1,2,4]triazolo[1,5-a]pyridin-8-yl]-3,6-dihydro-2H-pyridin-1-yl]butan-1-one]", "IC50": 65.1},
      {"smiles": "CN(C)c1ccc(C2CCCN(C(=O)c3ccc(Nc4nc5c(C6=CCN(C(=O)CCC(F)(F)F)CC6)cccn5n4)cc3)C2)nc1", "note": "(stereo not drawn) [Example 2-51, 1-[4-[2-[4-[3-[5-(dimethylamino)-2-pyridyl]piperidine-1-carbonyl]anilino]-[1,2,4]triazolo[1,5-a]pyridin-8-yl]-3,6-dihydro-2H-pyridin-1-yl]-4,4,4-trifluoro-butan-1-one]", "IC50": 70.2},
      {"smiles": "CN1CCC(N(C)C(=O)c2ccc(Nc3nc4c(C5=CCN(CC#N)CC5)cccn4n3)cc2)CC1", "note": "[Example 2-52, 4-[[8-[1-(cyanomethyl)-3,6-dihydro-2H-pyridin-4-yl]-[1,2,4]triazolo[1,5-a]pyridin-2-yl]amino]-N-methyl-N-(1-methyl-4-piperidyl)benzamide]", "IC50": 60},
      {"smiles": "CN1CCC(N(C)C(=O)c2ccc(Nc3nc4c(C5=CCN(C(=O)CC(C)(C)C)CC5)cccn4n3)cc2)CC1", "note": "[Example 2-54, 4-[[8-[1-(3,3-dimethylbutanoyl)-3,6-dihydro-2H-pyridin-4-yl]-[1,2,4]triazolo[1,5-a]pyridin-2-yl]amino]-N-methyl-N-(1-methyl-4-piperidyl)benzamide]", "IC50": 16.3},
      {"smiles": "CCOC(=O)N1CC=C(c2cccn3nc(Nc4ccc(C(=O)N5CC(NC)C5)cc4)nc23)CC1", "note": "[Example 2-55, Ethyl 4-[2-[4-[3-(methylamino)azetidine-1-carbonyl]anilino]-[1,2,4]triazolo[1,5-a]pyridin-8-yl]-3,6-dihydro-2H-pyridine-1-carboxylate]", "IC50": 10},
      {"smiles": "CCOC(=O)N1CC=C(c2cccn3nc(Nc4ccc(C(=O)NC5CCN(C)CC5)cc4)nc23)CC1", "note": "[Example 2-60, ethyl 4-[2-[4-[(1-methyl-4-piperidyl)carbamoyl]anilino]-[1,2,4]triazolo[1,5-a]pyridin-8-yl]-3,6-dihydro-2H-pyridine-1-carboxylate]", "IC50": 20.4},
      {"smiles": "CCOC(=O)N1CC=C(c2cccn3nc(Nc4ccc(C(=O)N5CCC(c6ccncc6)C5)cc4)nc23)CC1", "note": "(stereo not drawn) [Example 2-62, ethyl 4-[2-[4-[3-(4-pyridyl)pyrrolidine-1-carbonyl]anilino]-[1,2,4]triazolo[1,5-a]pyridin-8-yl]-3,6-dihydro-2H-pyridine-1-carboxylate]", "IC50": 30},
      {"smiles": "CCOC(=O)N1CC=C(c2cccn3nc(Nc4ccc(C(=O)N5CCCC5c5ccc(C)cn5)cc4)nc23)CC1", "note": "(stereo not drawn) [Example 2-67, ethyl 4-[2-[4-[2-(5-methyl-2-pyridyl)pyrrolidine-1-carbonyl]anilino]-[1,2,4]triazolo[1,5-a]pyridin-8-yl]-3,6-dihydro-2H-pyridine-1-carboxylate]", "IC50": 40.9}
    ]}
  ]
}
